Source: patent US10793575B2, “Oxoisoquinoline derivatives” (CARNA BIOSCIENCES, INC., priority 2016, dated 2020)

Tests used:
dephosphorylated BTK = dephosphorylated BTK (Homo sapiens (Human), UniProt Q06187); assay: BTK Activity Inhibition Test (mobility shift assay); type: biochemical; conditions: 200 μM ATP, read-out: Inhibitory Activity on BTK
In short: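 Biotinylated human BTK was dephosphorylated with λ phosphatase and assayed by mobility shift, with FITC-SRCtide as substrate in 20 mM HEPES pH 7.5, 0.01% Triton X-100 and 2 mM DTT. The substrate mix held 4 μM substrate, 20 mM MgCl2 and 200 μM ATP, and the enzyme solution held 0.46 nM BTK (stock levels, not final). After 2 h at room temperature, % inhibition was derived from P/(P+S) and IC50 by log-concentration regression.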

BTK = BTK (Homo sapiens (Human), UniProt Q06187); assay: Intracellular BTK Auto-Phosphorylation Activity Inhibition Test in Ramos cells; type: cell-based; conditions: test compound 0.03 μM, anti-IgM stimulation, pY223, read-out: Inhibitory Activity on BTK-phosphorization
BTK, sequence (Q06187 whole entry): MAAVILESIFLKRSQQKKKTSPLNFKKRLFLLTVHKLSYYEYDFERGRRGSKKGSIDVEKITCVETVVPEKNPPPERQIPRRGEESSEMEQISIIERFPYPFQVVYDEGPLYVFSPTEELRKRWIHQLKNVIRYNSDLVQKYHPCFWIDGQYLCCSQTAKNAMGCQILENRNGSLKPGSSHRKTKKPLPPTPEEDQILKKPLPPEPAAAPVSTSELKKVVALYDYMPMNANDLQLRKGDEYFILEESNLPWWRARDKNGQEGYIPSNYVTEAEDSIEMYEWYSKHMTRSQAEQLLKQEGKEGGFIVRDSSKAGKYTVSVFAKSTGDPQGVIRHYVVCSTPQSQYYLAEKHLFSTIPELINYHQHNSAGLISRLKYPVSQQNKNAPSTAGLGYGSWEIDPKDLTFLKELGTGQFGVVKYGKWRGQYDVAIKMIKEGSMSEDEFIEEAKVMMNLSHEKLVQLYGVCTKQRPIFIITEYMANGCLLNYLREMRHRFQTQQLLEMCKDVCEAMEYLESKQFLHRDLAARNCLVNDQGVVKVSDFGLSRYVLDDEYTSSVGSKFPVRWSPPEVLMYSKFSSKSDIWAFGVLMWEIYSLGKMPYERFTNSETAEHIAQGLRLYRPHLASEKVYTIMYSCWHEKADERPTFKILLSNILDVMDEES
Protocol: Ramos cells (2G6.4C10, ATCC No. CRL-1923) were cultured in a T75 flask containing RPMI-1640 medium (GIBCO, # A10491-01) supplemented with 10% FBS (AusGene) and 1% penicillin-streptomycin (Nacalai Tesque, Inc.) (hereinafter referred to as growth medium) in a 5% CO2 incubator.
The cultured Ramos cells were diluted to a cell density of 7.5×10^6 cells/mL with a serum-free RPMI-1640 (hereinafter referred to as medium) and kept at 37° C. for 45 minutes. The cell suspension was dispensed in 1 mL aliquots into 2.0 mL tubes. A 0.03 mM solution of the test substance in DMSO was diluted with the medium to make a 0.09 μM test compound solution, 500 μL of which was then added to the tubes and the incubation was conducted at 37° C. for 1 hour in the presence of the test compound at a final concentration of 0.03 μM. Thereafter, the anti-IgM antibody (Invitrogen, H15100) which had been diluted with the medium was added at a final concentration of 10 μg/mL, and the incubation was conducted at 37° C. for 10 minutes.
To the pellets obtained by recovering the cells via centrifugation, 100 μL of a lysis buffer [RIPA Buffer(×1)(Cell Signaling Technology, Inc.) supplemented with 1% Phosphatase inhibitor Cacktail 3 (Sigma Corporation, No. P0044), 1% Phosphatase inhibitor Cacktail (Nacalai Tesque, Inc., No. 07575) and 1 mM phenylmethylsulfonyl fluoride (PMSF)] was added and stirred gently and then allowed to stand for 10 minutes. The supernatant was recovered by centrifugation (15,000 rpm, 15 minutes) and the protein level was quantified. The portion was mixed with the SDS-sample buffer, allowed to react for 5 minutes at 95° C. to denature the protein, thereby obtaining a sample solution. Each 5 μL of the sample solutions was applied to each well containing a 5 to 20% gradient acrylamide gel (Nacalai Tesque, Inc., No. 13064-04) and electrophoresis was conducted. Thereafter, iBlot gel transfer system (Life Technologies Corporation) was used to transfer the proteins in the gel onto a PVDF membrane.
The PVDF membrane after transfer was blocked with 2% ECL prime blocking Reagent (GE Healthcare) and thereafter the reaction was conducted overnight at 4° C. using anti-BTK mouse antibody (BD transduction laboratory, No. 611116) or anti-phosphorylated BTK rabbit antibody (pY223, EPITOMICS, No. 2207-1) as a primary antibody. The unreacted primary antibody was washed with a TBST buffer (10 mM Tris-HCl (pH 7.5), 150 mM NaCl, 0.1% Tween 20) and then the reaction was conducted for 1 hour at room temperature in a TBST buffer supplemented with 2% ECL prime blocking Reagent using HRP-labeled anti-mouse IgG horse antibody (Cell Signaling Technology, No. 7076) or anti-rabbit IgG goat antibody (Cell Signaling Technology, No. 7074) as a secondary antibody. After washing the unreacted secondary antibody with the TBST buffer, Chemi-Lumi One Super (Nacalai Tesque, Inc.) was used to conduct a reaction in accordance with the attached protocol, and then the respective bands as chemiluminescences were detected with a CCD camera (GE Healthcare ImageQuant LAS 500). […] Each phosphorylated BTK band was corrected based on the total BTK.
The intracellular BTK autophosphorylation inhibiting activity was indicated with the mark “***” when 90% or more, with the mark “**” when 70% or more and less than 90%, and with the mark “*” when 50% or more and less than 70%.

wild type BTK [BTK(WT)] = wild type BTK [BTK(WT)] (Homo sapiens (Human), UniProt Q06187); assay: C481S Mutant BTK Inhibitory Activity Test, wild type BTK (mobility shift assay); type: biochemical; conditions: 120 μM ATP
wild type BTK [BTK(WT)], sequence (Q06187 whole entry): as above
Protocol: (§1) The kinase activity was measured using QuickScout Screening Assist (trademark) MSA (commercially available kit manufactured by Carna Biosciences, Inc.) by mobility shift assay (MSA) method. The substrate of the kinase reaction was an FITC-labeled SRCtide peptide included in the kit. […] The 10 mM solution of the test compound in DMSO was further diluted with DMSO to 10 levels of the concentration (0.00003 mM, 0.0001 mM, 0.0003 mM, 0.001 mM, 0.003 mM, 0.01 mM, 0.03 mM, 0.1 mM, 0.3 mM, 1 mM), each of which was subjected to a 25-fold dilution with the assay buffer to obtain the drug solutions (4% DMSO solutions).
(§2) 5 μL of the drug solution or a control solution (4% DMSO-assay buffer), 5 μL of the substrate mixture solution, and 10 μL of the enzyme solution were mixed in the wells of a polypropylene 384-well plate and allowed to react at room temperature for 1 hour, and then quenched by adding 60 μL of the termination buffer included in the kit. Subsequently, the quantities of the substrates (S) and the phosphorylated substrate (P) in the reaction solution were measured using LabChip EZ Reader II system (manufactured by Caliper Life Sciences) according to the protocol of the assay kit.
(§3) The heights of the peaks of the isolated substrate and the phosphorylated substrate were represented as S and P, respectively, and a blank which contained the assay buffer instead of the enzyme solution was also measured.
(§4) The inhibition rate (%) of the test compound was calculated according to the following equation; Inhibition rate (%)=(1−(C−A)/(B−A))×100 • wherein, A, B and C represent P/(P+S) of the blank well, P/(P+S) of the control well and P/(P+S) of the compound-containing well, respectively.
(§5) The IC50 value was calculated via a regression analysis of the inhibition rate (%) and the test compound concentration (logarithmic value).

[1] = molecular target: C481S mutant BTK [BTK(C481S)] (Homo sapiens (Human), UniProt Q06187, C481S); assay: C481S Mutant BTK Inhibitory Activity Test (mobility shift assay); type: biochemical; conditions: for IC50: C481S mutant BTK, 100 μM ATP; for C481S mutation-resistance: IC50[BTK(C481S)]/IC50[BTK(WT)]
C481S mutant BTK [BTK(C481S)], sequence (Q06187 whole entry C481S): as the sequence (Q06187 whole entry) above, with C481S counted along it
Protocol: as §1, §2, §3, §4, §5

OCI-Ly10 cells = assay: Proliferation-Inhibitory Test Against Diffuse Large-Cell B-Cell Lymphoma OCI-Ly10 Strain; type: cell-based; conditions: Homo sapiens, 96 hours, alamarBlue
In short: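 In IMDM with 20% FBS, OCI-Ly10 cells (20000 cells/well) were exposed to compound at 0.9 nM to 30000 nM (0.3% DMSO final) for 96 hours. Viability was then read with alamarBlue reagent.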

dephosphorylated BTK, sequence (Q06187 whole entry): as the sequence (Q06187 whole entry) above

| IC50 (dephosphorylated BTK) [nM] | inhibition at 0.03 µM (BTK) [%] | IC50 (wild type BTK [BTK(WT)]) [nM] | IC50 [1] [nM] | C481S mutation-resistance [1] | IC50 (OCI-Ly10 cells) [nM] | Structure (SMILES) |
| --- | --- | --- | --- | --- | --- | --- |
| < 10 | ≥ 90 | – | – | – | – | Nc1nc(-c2cccc(-n3ccc4cc(C5CC5)cc(F)c4c3=O)c2CO)c2cc(-c3ccccc3)[nH]c2n1 [Example 1, 2-[3-(2-amino-6-phenyl-7H-pyrrolo[2,3-d]pyrimidin-4-yl)-2-(hydroxymethyl)phenyl]-6-cyclopropyl-8-fluoroisoquinolin-1(2H)-one] |
| < 10 | ≥ 90 | – | – | – | – | Nc1nc(-c2cccc(-n3ccc4cc(C5CC5)cc(F)c4c3=O)c2CO)c2c(-c3ccccc3)n[nH]c2n1 [Example 3, 2-[3-(6-amino-3-phenyl-1H-pyrazolo[3,4-d]pyrimidin-4-yl)-2-(hydroxymethyl)phenyl]-6-cyclopropyl-8-fluoroisoquinolin-1(2H)-one] |
| < 10 | ≥ 90 | – | – | – | – | COc1cccc(-c2cc3c(-c4cccc(-n5ccc6cc(C7CC7)cc(F)c6c5=O)c4CO)nc(N)nc3[nH]2)c1 [Example 15, 2-{3-[2-amino-6-(3-methoxyphenyl)-7H-pyrrolo[2,3-d]pyrimidin-4-yl]-2-(hydroxymethyl)phenyl}-6-cyclopropyl-8-fluoroisoquinolin-1(2H)-one] |
| < 10 | ≥ 90 | – | – | – | – | COc1ccc(-c2cc3c(-c4cccc(-n5ccc6cc(C7CC7)cc(F)c6c5=O)c4CO)nc(N)nc3[nH]2)cc1 [Example 16, 2-{3-[2-amino-6-(4-methoxyphenyl)-7H-pyrrolo[2,3-d]pyrimidin-4-yl]-2-(hydroxymethyl)phenyl}-6-cyclopropyl-8-fluoroisoquinolin-1(2H)-one] |
| < 10 | ≥ 90 | – | – | – | – | COc1cccc(-c2nc3c(-c4cccc(-n5ccc6cc(C7CC7)cc(F)c6c5=O)c4CO)nc(N)nc3[nH]2)c1 [Example 18, 2-{3-[2-amino-8-(3-methoxyphenyl)-9H-purin-6-yl]-2-(hydroxymethyl)phenyl}-6-cyclopropyl-8-fluoroisoquinolin-1(2H)-one] |
| < 10 | ≥ 90 | – | – | – | – | Nc1nc(-c2cccc(-n3ccc4cc(C5CC5)cc(F)c4c3=O)c2CO)c2nc(-c3cccnc3)[nH]c2n1 [Example 25, 2-{3-[2-amino-8-(pyridin-3-yl)-9H-purin-6-yl]-2-(hydroxymethyl)phenyl]-6-cyclopropyl-8-fluoroisoquinolin-1(2H)-one] |
| < 10 | ≥ 90 | – | – | – | 182 | N#Cc1ccc(-c2cc3c(-c4cccc(-n5ccc6cc(C7CC7)cc(F)c6c5=O)c4CO)nc(N)nc3[nH]2)cc1 [Example 27, 4-{2-amino-4-[3-(6-cyclopropyl-8-fluoro-1-oxoisoquinolin-2(1H)-yl)-2-(hydroxymethyl)phenyl]-7H-pyrrolo[2,3-d]pyrimidin-6-yl}benzonitrile] |
| < 10 | ≥ 90 | – | – | – | 79 | Nc1nc(-c2cccc(-n3ccc4cc(C5CC5)cc(F)c4c3=O)c2CO)c2cc(-c3ccsc3)[nH]c2n1 [Example 32, 2-{3-[2-amino-6-(thiophen-3-yl)-7H-pyrrolo[2,3-d]pyrimidin-4-yl]-2-(hydroxymethyl)phenyl}-6-cyclopropyl-8-fluoroisoquinolin-1(2H)-one] |

Second part, the molecule before the results:

| Structure (SMILES) | IC50 (dephosphorylated BTK) [nM] | inhibition at 0.03 µM (BTK) [%] | IC50 (wild type BTK [BTK(WT)]) [nM] | IC50 [1] [nM] | C481S mutation-resistance [1] | IC50 (OCI-Ly10 cells) [nM] |
| --- | --- | --- | --- | --- | --- | --- |
| Nc1nc(-c2cccc(-n3ccc4cc(C5CC5)cc(F)c4c3=O)c2CO)c2nc(-c3ccccc3)[nH]c2n1 [Example 2, 2-[3-(2-amino-8-phenyl-9H-purin-6-yl)-2-(hydroxymethyl)phenyl]-6-cyclopropyl-8-fluoroisoquinolin-1(2H)-one] | < 10 | ≥ 90 | 0.97 | 0.99 | 1.0 | 68 |
| Nc1nc(-c2cccc(-n3ccc4cc(C5CC5)cc(F)c4c3=O)c2CO)c2cn[nH]c2n1 [Example 5, 2-[3-(6-amino-1H-pyrazolo[3,4-d]pyrimidin-4-yl)-2-(hydroxymethyl)phenyl]-6-cyclopropyl-8-fluoroisoquinolin-1(2H)-one] | < 10 | ≥ 90 | – | – | – | – |
| CN1CCN(Cc2ccc(-c3cc4c(-c5cccc(-n6ccc7cc(C8CC8)cc(F)c7c6=O)c5CO)nc(N)nc4[nH]3)cc2)CC1 [Example 8, 2-[3-(2-amino-6-{4-[(4-methylpiperazin-1-yl)methyl]phenyl}-7H-pyrrolo[2,3-d]pyrimidin-4-yl)-2-(hydroxymethyl)phenyl]-6-cyclopropyl-8-fluoroisoquinolin-1(2H)-one] | < 10 | ≥ 90 | 0.33 | 0.43 | 1.3 | 4 |
| COc1ccccc1-c1cc2c(-c3cccc(-n4ccc5cc(C6CC6)cc(F)c5c4=O)c3CO)nc(N)nc2[nH]1 [Example 14, 2-{3-[2-amino-6-(2-methoxyphenyl)-7H-pyrrolo[2,3-d]pyrimidin-4-yl]-2-(hydroxymethyl)phenyl}-6-cyclopropyl-8-fluoroisoquinolin-1(2H)-one] | < 10 | 70 to 90 | – | – | – | – |
| Nc1nc(-c2cccc(-n3ccc4cc(C5CC5)cc(F)c4c3=O)c2CO)c2cc(-c3cccnc3)[nH]c2n1 [Example 17, 2-{3-[2-amino-6-(pyridin-3-yl)-7H-pyrrolo[2,3-d]pyrimidin-4-yl]-2-(hydroxymethyl)phenyl}-6-cyclopropyl-8-fluoroisoquinolin-1(2H)-one] | < 10 | ≥ 90 | – | – | – | – |
| Nc1nc(-c2cccc(-n3ccc4cc(C5CC5)cc(F)c4c3=O)c2CO)c2cc(-c3ccc(CN4CCOCC4)cc3)[nH]c2n1 [Example 26, 2-(3-{2-amino-6-[4-(morpholinomethyl)phenyl]-7H-pyrrolo[2,3-d]pyrimidin-4-yl}-2-(hydroxymethyl)phenyl)-6-cyclopropyl-8-fluoroisoquinolin-1(2H)-one] | < 10 | ≥ 90 | – | – | – | 75 |
